Here are results for 14 compounds from PubChem BioAssay AID328 (DTP/NCI, 2004).

Several values for one entry are separate records, joined by “and”; a condition that tells them apart may be missing. Identical values can stand only once. Inconclusive results and toxic doses are left out.

For this experiment, the system named is BDF1 mice, P388 leukemia ip, median survival T/C. Briefly: NCI In Vivo Anticancer Drug Screen. Data for tumor model P388 Leukemia (intraperitoneal) in B6D2F1 (BDF1) mice. The settings on record: endpoint: median survival time, higher = longer survival. Put shortly:
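Each value expresses how treatment altered survival: treated-mouse outcome over vehicle-mouse outcome, both groups bearing the transplanted tumour.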

[1] abbreviates: dose: 100.0 mg/kg/injection, schedule: Q01DX009 (ip), vehicle: saline with Tween-80.
Where [2] appears, read: dose: 200.0 mg/kg/injection, schedule: Q01DX009 (ip), vehicle: saline with Tween-80.
Where [3] appears, read: dose: 100.0 mg/kg/injection, schedule: Q01DX009 (ip), vehicle: saline.
The mark [4] stands for this setting: dose: 200.0 mg/kg/injection, schedule: Q01DX009 (ip), vehicle: saline.

For the compound `COc1ccc(-c2csc(-c3ccccc3)n2)cc1N=Cc1ccc(N(CCCl)CCCl)c(OC)c1`, the T/C runs as follows: (dose: 2.6 mg/kg/injection, schedule: Q04DX003 (ip), vehicle: saline with Tween-80) 118 % of control; (dose: 4.0 mg/kg/injection, schedule: Q04DX003 (ip), vehicle: saline with Tween-80) 122 % of control; (dose: 6.0 mg/kg/injection, schedule: Q04DX003 (ip), vehicle: saline with Tween-80) 90 % of control; (dose: 13.0 mg/kg/injection, schedule: Q04DX003 (ip), vehicle: saline with Tween-80) 190 % of control; (dose: 17.0 mg/kg/injection, schedule: Q01DX009 (ip), vehicle: saline with Tween-80) 240 % of control; (dose: 20.0 mg/kg/injection, schedule: Q04DX003 (ip), vehicle: saline with Tween-80) 204 % of control. In addition, the T/C is 240 % of control (dose: 25.0 mg/kg/injection, schedule: Q01DX009 (ip), vehicle: saline with Tween-80); 271 % of control (dose: 30.0 mg/kg/injection, schedule: Q04DX003 (ip), vehicle: saline with Tween-80); 184 % of control (dose: 37.0 mg/kg/injection, schedule: Q01DX009 (ip), vehicle: saline with Tween-80); 242 % of control and 300 % of control (dose: 44.0 mg/kg/injection, schedule: Q04DX003 (ip), vehicle: saline with Tween-80); 272 % of control and 300 % of control (dose: 67.0 mg/kg/injection, schedule: Q04DX003 (ip), vehicle: saline with Tween-80); 87 % of control under setting [1].

Turning to `NNC(=O)OC12CC3CC(CC(C3)C1)C2`, the T/C by setting is: (dose: 12.5 mg/kg/injection, schedule: Q04DX003 (ip), vehicle: Klucel (hydroxypropylcellulose) (HPC)) 105 % of control; (dose: 25.0 mg/kg/injection, schedule: Q04DX003 (ip), vehicle: Klucel (hydroxypropylcellulose) (HPC)) 105 % of control; (dose: 50.0 mg/kg/injection, schedule: Q04DX003 (ip), vehicle: Klucel (hydroxypropylcellulose) (HPC)) 120 % of control; (dose: 63.75 mg/kg/injection, schedule: Q01DX001 (ip), vehicle: Klucel (hydroxypropylcellulose) (HPC)) 100 % of control; (dose: 127.5 mg/kg/injection, schedule: Q01DX001 (ip), vehicle: Klucel (hydroxypropylcellulose) (HPC)) 122 % of control; (dose: 255.0 mg/kg/injection, schedule: Q04DX003 (ip), vehicle: Klucel (hydroxypropylcellulose) (HPC)) 90 % of control.

In the case of `COc1ccc(CC2c3cc(OC)c(OC)cc3CCN2C(C)=O)cc1OC` (stereo unspecified), the T/C (dose: 50.0 mg/kg/injection, schedule: Q01DX005 (ip), vehicle: saline with Tween-80) is 90 % of control and the T/C (dose: 200.0 mg/kg/injection, schedule: Q01DX005 (ip), vehicle: saline with Tween-80) was 88 % of control.

For `COc1cc2c(c(OC)c1OC)C(=O)/C(=C\c1ccccc1)O2`, the T/C under setting [2] is 96 % of control.

As to `CCOc1ccc(N2C(=O)CC(Sc3ccccc3N)C2=O)cc1` (stereo unspecified), the T/C is 105 % of control (dose: 100.0 mg/kg/injection, schedule: Q01DX001 (ip), vehicle: Klucel (hydroxypropylcellulose) (HPC)); 100 % of control (dose: 100.0 mg/kg/injection, schedule: Q04DX003 (ip), vehicle: Klucel (hydroxypropylcellulose) (HPC)); 100 % of control (dose: 200.0 mg/kg/injection, schedule: Q01DX001 (ip), vehicle: Klucel (hydroxypropylcellulose) (HPC)); 90 % of control (dose: 200.0 mg/kg/injection, schedule: Q04DX003 (ip), vehicle: Klucel (hydroxypropylcellulose) (HPC)); 100 % of control (dose: 400.0 mg/kg/injection, schedule: Q01DX001 (ip), vehicle: Klucel (hydroxypropylcellulose) (HPC)); 100 % of control (dose: 400.0 mg/kg/injection, schedule: Q04DX003 (ip), vehicle: Klucel (hydroxypropylcellulose) (HPC)).

As to `CC(=O)OC(C)(C(=O)/C=C/C(C)(C)O)C1C(O)CC2(C)C3CC=C4C(C=C(O)C(=O)C4(C)C)C3(C)C(=O)CC12C` (stereo unspecified), the T/C is 100 % of control (dose: 0.25 mg/kg/injection, schedule: Q01DX010 (ip), vehicle: carboxymethylcellulose (CMC)); 96 % of control (dose: 0.5 mg/kg/injection, schedule: Q01DX010 (ip), vehicle: carboxymethylcellulose (CMC)); 98 % of control (dose: 1.0 mg/kg/injection, schedule: Q01DX010 (ip), vehicle: carboxymethylcellulose (CMC)); 117 % of control (dose: 2.0 mg/kg/injection, schedule: Q01DX010 (ip), vehicle: carboxymethylcellulose (CMC)); 105 % of control (dose: 4.0 mg/kg/injection, schedule: Q01DX010 (ip), vehicle: carboxymethylcellulose (CMC)).

Consider `NCCCC(N)(CO)C(=O)O` (stereo unspecified), for which the T/C runs as follows: (dose: 50.0 mg/kg/injection, schedule: Q01DX009 (ip), vehicle: saline) 91 % of control; under setting [3], 97 % of control; under setting [4], 100 % of control.

In the case of `COC(C/C=C\C=C\CC/C=C/CC(C)/C=C/C(=C\C(=O)O)CC(=O)O)/C(C)=C\C=C(/C)C(=O)O` (stereo unspecified), the T/C (dose: 1.0 mg/kg/injection, schedule: Q04DX003 (ip), vehicle: saline) is 100 % of control; the T/C (dose: 2.0 mg/kg/injection, schedule: Q04DX003 (ip), vehicle: saline) was 88 % of control; the T/C (dose: 4.0 mg/kg/injection, schedule: Q01DX009 (ip), vehicle: saline) was 87 % of control; the T/C (dose: 4.0 mg/kg/injection, schedule: Q04DX003 (ip), vehicle: saline) is 94 % of control; the T/C (dose: 6.0 mg/kg/injection, schedule: Q04DX003 (ip), vehicle: saline) is 100 % of control; the T/C (dose: 8.0 mg/kg/injection, schedule: Q01DX009 (ip), vehicle: saline) is 87 % of control. Also, the T/C by setting is: (dose: 8.0 mg/kg/injection, schedule: Q04DX003 (ip), vehicle: saline) 108 % of control; (dose: 16.0 mg/kg/injection, schedule: Q01DX009 (ip), vehicle: saline) 100 % of control; (dose: 16.0 mg/kg/injection, schedule: Q04DX003 (ip), vehicle: saline) 95 % of control.

`CNC(C)(C)CO`: the T/C reads like this: under setting [3], 105 % of control; (dose: 100.0 mg/kg/injection, schedule: Q04DX003 (ip), vehicle: saline) 104 % of control; under setting [4], 115 % of control; (dose: 200.0 mg/kg/injection, schedule: Q04DX003 (ip), vehicle: saline) 95 % of control; (dose: 400.0 mg/kg/injection, schedule: Q04DX003 (ip), vehicle: saline) 95 % of control.

For `CCCC(=O)OCc1ccc(Cl)cc1Cl`, the T/C (dose: 100.0 mg/kg/injection, schedule: Q04DX003 (ip), vehicle: saline with Tween-80) is 109 % of control and the T/C (dose: 400.0 mg/kg/injection, schedule: Q04DX003 (ip), vehicle: saline with Tween-80) is 113 % of control.

Regarding `Cc1cc(C)c(C)[nH]1`, the T/C (dose: 3.12 mg/kg/injection, schedule: Q01DX009 (ip), vehicle: water) is 87 % of control; the T/C (dose: 6.25 mg/kg/injection, schedule: Q01DX009 (ip), vehicle: water) is 111 % of control; the T/C (dose: 12.5 mg/kg/injection, schedule: Q01DX009 (ip), vehicle: water) is 105 % of control; the T/C (dose: 12.5 mg/kg/injection, schedule: Q04DX003 (ip), vehicle: water) was 91 % of control; the T/C (dose: 25.0 mg/kg/injection, schedule: Q01DX009 (ip), vehicle: water) is 103 % of control; the T/C (dose: 25.0 mg/kg/injection, schedule: Q04DX003 (ip), vehicle: water) was 114 % of control. Moreover, the T/C (dose: 50.0 mg/kg/injection, schedule: Q01DX009 (ip), vehicle: water) was 97 % of control and the T/C (dose: 50.0 mg/kg/injection, schedule: Q04DX003 (ip), vehicle: water) is 107 % of control.

Take `C[N+](C)(C)c1ccc2c(c1)CCC/C2=N\N`: for the setting “dose: 6.25 mg/kg/injection, schedule: Q04DX003 (ip), vehicle: saline with Tween-80”, the T/C is 94 % of control.

As for `N#CCCN(C(=S)Nc1cccc(C(F)(F)F)c1)C1CCCCC1`, the T/C runs as follows: (dose: 50.0 mg/kg/injection, schedule: Q01DX009 (ip), vehicle: saline with Tween-80) 114 % of control and 123 % of control; under setting [1], 110 % of control and 111 % of control; under setting [2], 106 % of control.

Take `CCOP1(=S)OCC(C)O1` (stereo unspecified): the T/C reads like this: (dose: 100.0 mg/kg/injection, schedule: Q04DX002 (ip), vehicle: saline with Tween-80) 105 % of control; (dose: 200.0 mg/kg/injection, schedule: Q04DX002 (ip), vehicle: saline with Tween-80) 99 % of control; (dose: 400.0 mg/kg/injection, schedule: Q04DX002 (ip), vehicle: saline with Tween-80) 105 % of control.
